Tested on: tobacco budworm (Heliothis virescens [Fabricius])
Experiment: surface-treated diet test, insecticidal activity against tobacco budworm
Type: in vivo
Design: mortality: concentration or dose not given beside the values
Conditions: 0.25 millimoles of candidate insecticide on the surface of the diet, second instar larvae, five-day exposure; for Percent Mortality / mortality: compared to total number of insects infested; for Percent Growth Inhibition / pest or weed control at 0.25 mmol/well: inhibition of insect weight relative to untreated controls; for mortality / pest or weed control at 0.25 mmol/well: Heliothis virescens, 120 h; for mortality: read-out: Percent Mortality; for pest or weed control at 0.25 mmol/well: read-out: Percent Growth Inhibition
Description: Candidate insecticides were evaluated for activity against the tobacco budworm (Heliothis virescens [Fabricius]) in a surface-treated diet test.
In this test one mL of molten (65-70° C.) wheat germ-based artificial diet was pipetted into each well of a four by six (24 well) multi-well plate (ID# 430345-15.5 mm dia.×17.6 mm deep; Corning Costar Corp., One Alewife Center, Cambridge, Mass. 02140). The diet was allowed to cool to ambient temperature before treatment with candidate insecticide.
For a determination of insecticidal activity, solutions of the candidate insecticides were prepared for testing using a Packard 204DT Multiprobe® Robotic System (Packard Instrument Company, 800 Research Parkway, Meriden, Conn. 06450), in which the robot first diluted a standard 50 millimolar DMSO solution of candidate insecticide with a 1:1 water/acetone solution (V/V) in a ratio of 1:7 stock solution to water/acetone. The robot subsequently pipetted 40 microliters of the so-prepared solution onto the surface of the diet in each of three wells in the 24 multi-well plate. The process was repeated with solutions of seven other candidate insecticides. Once treated, the contents of the multi-well plate were allowed to dry, leaving 0.25 millimoles of candidate insecticide on the surface of the diet, or a concentration of 0.25 millimolar. Appropriate untreated controls containing only DMSO on the diet surface were also included in this test.
For evaluations of the insecticidal activity of a candidate insecticide at varying rates of application, the test was established as described above using sub-multiples of the standard 50 millimolar DMSO solution of candidate insecticide. For example, the standard 50 millimolar solution was diluted by the robot with DMSO to give 5, 0.5, 0.05, 0.005, 0.0005 millimolar, or more dilute solutions of the candidate insecticide. In these evaluations there were six replicates of each rate of application placed on the surface of the diet in the 24 multi-well plate, for a total of four rates of application of candidate insecticide in each plate.
In each well of the test plate was placed one second instar tobacco budworm larvea, each weighing approximately five milligrams. After the larvae were placed in each well, the plate was sealed with clear polyfilm adhesive tape. The tape over each well was perforated to ensure an adequate air supply. The plates were then held in a growth chamber at 25° C. and 60% relative humidity for five days (light 14 hours/day).
After the five-day exposure period insecticidal activity for each rate of application of candidate insecticide was assessed as percent inhibition of insect weight relative to the weight of insects from untreated controls, and percent mortality when compared to the total number of insects infested.
The test compounds of formula I are identified by numbers that correspond to those in Table 1.

Compound	Percent Mortality [%]	Percent Growth Inhibition [%]	mortality [%]	pest or weed control at 0.25 mmol/well [%]
OC1(C(c2ccc(C(F)(F)F)cc2)c2ccc(Cl)c(Cl)c2)CCN(Cc2ccc(Oc3ncccn3)cc2)CC1 (stereo not shown) [Compound 9]	100	100		
OC1(C(c2cc(F)cc(F)c2)c2cc(F)cc(F)c2)CCN(Cc2ccc(Oc3ncccn3)cc2)CC1 [Compound 10]	0	50		
OC1(C(c2ccc(C(F)(F)F)cc2)c2cc(F)cc(F)c2)CCN(Cc2ccc(Oc3ncccn3)cc2)CC1 (stereo not shown) [Compound 11]	33	100		
OC1(C(c2ccc(C(F)(F)F)cc2)c2cccc(F)c2)CCN(Cc2ccc(Oc3ncccn3)cc2)CC1 (stereo not shown) [Compound 12]	0	100		
OC1(C(c2ccc(C(F)(F)F)cc2)c2cc(Cl)ccc2Cl)CCN(Cc2ccc(Oc3ncccn3)cc2)CC1 (stereo not shown) [Compound 13]	100	100		
OC1(C(c2ccc(C(F)(F)F)cc2)c2cccc(Cl)c2)CCN(Cc2ccc(Oc3ncccn3)cc2)CC1 (stereo not shown) [Compound 14]	100	100		
OC1(C(c2ccc(C(F)(F)F)cc2)c2ccc(Cl)cc2Cl)CCN(Cc2ccc(Oc3ncccn3)cc2)CC1 (stereo not shown) [Compound 15]	100	100		
OC1(C(c2ccc(C(F)(F)F)cc2)c2ccc(C(F)(F)F)cc2)CCN(Cc2ccc(Oc3ncccn3)cc2)CC1 [Compound 16]	100	100		
OC1(C(c2ccc(C(F)(F)F)cc2)c2ccc(F)c(F)c2)CCN(Cc2ccc(Oc3ncccn3)cc2)CC1 (stereo not shown) [Compound 17]	83	100		
OC1(C(c2ccc(C(F)(F)F)cc2)c2ccccc2Cl)CCN(Cc2ccc(Oc3ncccn3)cc2)CC1 (stereo not shown) [Compound 18]	100	100		
OC1(C(c2ccc(OC(F)(F)F)cc2)c2ccc(OC(F)(F)F)cc2)CCN(Cc2ccc(Oc3ncccn3)cc2)CC1 [Compound 19, 4-{bis[4-(trifluoromethoxy)phenyl]methyl}-1-[(4-pyrimidin-2-yloxyphenyl)methyl]piperidin-4-ol]			100	100
OC1(C(c2ccc(OC(F)(F)F)cc2)c2ccc(OC(F)(F)F)cc2)CCN(Cc2ccc(-c3ncccn3)cc2)CC1 [Compound 20]	100	100		
OC1(C(c2ccc(OC(F)(F)F)cc2)c2ccc(OC(F)(F)F)cc2)CCN(Cc2ccc(Oc3ccccn3)cc2)CC1 [Compound 21, 4-{bis[4-(trifluoromethoxy)phenyl]methyl}-1-[(4-(2-pyridyloxy)phenyl)methyl]piperidin-4-ol]			100	100
OC1(C(c2ccc(C(F)(F)F)cc2)c2ccc(C(F)(F)F)cc2)CCN(Cc2ccc(Oc3ccccn3)cc2)CC1 [Compound 22]	100	100		
CCn1nnc(-c2ccc(CN3CCC(O)(C(c4ccc(Cl)cc4)c4ccc(Cl)cc4)CC3)cc2)n1 [Compound 23]	100	100		
CCn1nnc(-c2ccc(CN3CCC(O)(C(c4cccc(Cl)c4)c4cccc(Cl)c4)CC3)cc2)n1 [Compound 24]	0	98		

Compound	Percent Mortality [%]	Percent Growth Inhibition [%]	mortality [%]	pest or weed control at 0.25 mmol/well [%]
CCn1nnc(-c2ccc(CN3CCC(O)(C(c4ccc(OC(F)(F)F)cc4)c4ccc(OC(F)(F)F)cc4)CC3)cc2)n1 [Compound 25]	100	100		
CCn1nnc(-c2ccc(CN3CCC(O)(C(c4ccc(Cl)c(Cl)c4)c4ccc(Cl)c(Cl)c4)CC3)cc2)n1 [Compound 26]	100	100		
CCn1nnc(-c2ccc(CN3CCC(O)(C(c4ccc(C(F)(F)F)cc4)c4ccc(C(F)(F)F)cc4)CC3)cc2)n1 [Compound 27]	100	100		
CCON=Cc1ccc(CN2CCC(O)(C(c3ccc(OC(F)(F)F)cc3)c3ccc(OC(F)(F)F)cc3)CC2)cc1 [Compound 28]	100	100		
CC(C)OC(=O)Nc1ccc(CN2CCC(O)(C(c3ccc(OC(F)(F)F)cc3)c3ccc(OC(F)(F)F)cc3)CC2)cc1 [Compound 29]	100	100		
OC1(C(c2ccc(OC(F)(F)F)cc2)c2ccc(OC(F)(F)F)cc2)CCN(Cc2ccc(Oc3ncccc3C(F)(F)F)cc2)CC1 [Compound 30]	100	100		
CCCOc1ccc(CN2CCC(O)(C(O)(c3ccc(OC(F)(F)F)cc3)c3ccc(OC(F)(F)F)cc3)CC2)cc1 [Compound 91]	100	100		
CCCOc1ccc(CN2CCC(O)(C(O)(c3ccc(C(F)(F)F)cc3)c3ccc(C(F)(F)F)cc3)CC2)cc1 [Compound 92]	100	100		
Cn1nnc(-c2ccc(CN3CCC(O)(C(O)(c4ccc(OC(F)(F)F)cc4)c4ccc(OC(F)(F)F)cc4)CC3)cc2)n1 [Compound 93, 4-{bis[4-(trifluoromethoxy)phenyl]hydroxymethyl}-1-{[4-(2-methyl(1,2,3,4-tetrazol-5-yl))phenyl]methyl}piperidin-4-ol]			100	100
[O-][N+]1(Cc2ccc(Oc3ccccn3)cc2)CCC(O)(C(c2ccc(C(F)(F)F)cc2)c2ccc(C(F)(F)F)cc2)CC1 (stereo not shown) [Compound 111]	100	100		
[O-][N+]1(Cc2ccc(Oc3ncccn3)cc2)CCC(O)(C(c2ccc(OC(F)(F)F)cc2)c2ccc(OC(F)(F)F)cc2)CC1 (stereo not shown) [Compound 112, 4-{bis[4-(trifluoromethoxy)phenyl]methyl}-4-hydroxy-1-[(4-pyrimidin-2-yloxyphenyl)methyl]piperidin-1-oxide]			100	100
CCn1nnc(-c2ccc(C[N+]3([O-])CCC(O)(C(c4ccc(C(F)(F)F)cc4)c4ccc(C(F)(F)F)cc4)CC3)cc2)n1 (stereo not shown) [Compound 113]	100	100		
CCn1nnc(-c2ccc(C[N+]3([O-])CCC(O)(C(c4ccc(OC(F)(F)F)cc4)c4ccc(OC(F)(F)F)cc4)CC3)cc2)n1 (stereo not shown) [Compound 114]	100	100		
[O-][N+]1(Cc2ccc(Oc3ncccn3)cc2)CCC(O)(C(c2ccc(Cl)c(F)c2)c2ccc(Cl)c(F)c2)CC1 (stereo not shown) [Compound 115]	50	100		
[O-][N+]1(Cc2ccc(-c3ncccn3)cc2)CCC(O)(C(c2ccc(OC(F)(F)F)cc2)c2ccc(OC(F)(F)F)cc2)CC1 (stereo not shown) [Compound 116]	100	100		
[O-][N+]1(Cc2ccc(Oc3ccccn3)cc2)CCC(O)(C(c2ccc(OC(F)(F)F)cc2)c2ccc(OC(F)(F)F)cc2)CC1 (stereo not shown) [Compound 117, 4-{bis[4-(trifluoromethoxy)phenyl]methyl}-4-hydroxy-1-[(4-(2-pyridyloxy)phenyl)methyl]piperidin-1-oxide]			100	100

Source: patent US8119563B2, “N-substituted azacycles” (FMC Corporation, priority 2003, dated 2012)
